The record followed here is ChEMBL document CHEMBL3045465, “Development of Selective Ligands for Benzodiazepine Receptor Subtypes by Manipulating the Substituents at Positions 3- and 7- of Optically Active BzR Ligands” (Med Chem Res, 2004).

The structures appear in SMILES notation.

Test [1] concerns the target GABA A receptor alpha-4/beta-3/gamma-2 (Homo sapiens, UniProt P18507+P28472+P48169). Description: Displacement of [3H]-Ro 15-4513 from Homo sapiens (human) recombinant GABAA alpha4beta3gamma2 receptor expressed in Ltk- cells after 1 hr by liquid scintillation counting. It counts as cell-based.
For the next test, the species on record is Homo sapiens. Description: Selectivity ratio of Ki for Homo sapiens (human) recombinant GABAA alpha1beta3gamma2 receptor to Ki for Homo sapiens (human) recombinant GABAA alpha5beta3gamma2 receptor.
The target of test [2] is T1, GABA-A receptor; alpha-2/beta-3/gamma-2 (Homo sapiens, UniProt P18507+P28472+P47869).
T1 sequence (P18507 whole entry): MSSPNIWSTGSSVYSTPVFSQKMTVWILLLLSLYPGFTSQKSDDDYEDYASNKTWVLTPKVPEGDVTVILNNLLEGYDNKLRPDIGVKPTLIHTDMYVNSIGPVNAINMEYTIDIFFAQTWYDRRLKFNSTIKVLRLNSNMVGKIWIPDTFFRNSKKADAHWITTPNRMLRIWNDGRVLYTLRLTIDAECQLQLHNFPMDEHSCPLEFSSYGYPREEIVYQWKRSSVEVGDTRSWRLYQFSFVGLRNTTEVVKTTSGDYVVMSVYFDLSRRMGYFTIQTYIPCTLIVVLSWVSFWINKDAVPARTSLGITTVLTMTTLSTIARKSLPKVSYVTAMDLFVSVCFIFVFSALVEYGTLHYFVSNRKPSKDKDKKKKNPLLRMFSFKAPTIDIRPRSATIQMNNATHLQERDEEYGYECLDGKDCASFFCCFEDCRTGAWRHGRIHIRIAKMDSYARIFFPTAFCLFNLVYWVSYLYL
T1 sequence (P28472 whole entry): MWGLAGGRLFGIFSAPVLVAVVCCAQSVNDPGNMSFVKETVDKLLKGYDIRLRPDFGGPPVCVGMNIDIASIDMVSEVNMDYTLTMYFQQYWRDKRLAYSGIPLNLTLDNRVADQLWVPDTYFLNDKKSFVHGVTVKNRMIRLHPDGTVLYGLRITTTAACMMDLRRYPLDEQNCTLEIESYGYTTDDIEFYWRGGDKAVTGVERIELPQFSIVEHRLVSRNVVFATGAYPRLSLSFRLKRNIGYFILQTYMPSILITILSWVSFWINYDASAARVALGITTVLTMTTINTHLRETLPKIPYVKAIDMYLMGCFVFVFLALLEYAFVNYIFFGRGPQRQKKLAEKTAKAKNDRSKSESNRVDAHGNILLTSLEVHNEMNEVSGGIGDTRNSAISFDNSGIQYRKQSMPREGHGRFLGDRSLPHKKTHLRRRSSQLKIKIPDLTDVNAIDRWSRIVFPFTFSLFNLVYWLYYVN
T1 sequence (P47869 whole entry): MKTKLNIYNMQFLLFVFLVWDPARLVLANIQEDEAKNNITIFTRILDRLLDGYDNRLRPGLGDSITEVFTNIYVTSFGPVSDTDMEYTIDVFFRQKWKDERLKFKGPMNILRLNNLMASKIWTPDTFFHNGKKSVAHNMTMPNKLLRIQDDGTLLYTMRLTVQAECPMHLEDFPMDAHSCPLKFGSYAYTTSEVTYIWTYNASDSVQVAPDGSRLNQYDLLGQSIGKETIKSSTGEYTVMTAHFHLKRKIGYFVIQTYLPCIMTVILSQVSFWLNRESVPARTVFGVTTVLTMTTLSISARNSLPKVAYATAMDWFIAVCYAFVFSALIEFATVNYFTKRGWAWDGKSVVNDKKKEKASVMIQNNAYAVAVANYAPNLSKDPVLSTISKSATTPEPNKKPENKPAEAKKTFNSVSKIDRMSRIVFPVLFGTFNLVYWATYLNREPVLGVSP
Description: Displacement of [3H]-Ro 15-1788 from Homo sapiens (human) recombinant GABAA alpha2beta3gamma2 receptor expressed in Ltk- cells after 1 hr by liquid scintillation counting. It counts as cell-based. A general note: Loss of bound radioactivity is the signal in a displacement assay; it reports binding, not function.

Test [3] addresses T2, GABA-A receptor; alpha-1/beta-3/gamma-2 (Homo sapiens, UniProt P14867+P18507+P28472).
T2 sequence (P14867 whole entry): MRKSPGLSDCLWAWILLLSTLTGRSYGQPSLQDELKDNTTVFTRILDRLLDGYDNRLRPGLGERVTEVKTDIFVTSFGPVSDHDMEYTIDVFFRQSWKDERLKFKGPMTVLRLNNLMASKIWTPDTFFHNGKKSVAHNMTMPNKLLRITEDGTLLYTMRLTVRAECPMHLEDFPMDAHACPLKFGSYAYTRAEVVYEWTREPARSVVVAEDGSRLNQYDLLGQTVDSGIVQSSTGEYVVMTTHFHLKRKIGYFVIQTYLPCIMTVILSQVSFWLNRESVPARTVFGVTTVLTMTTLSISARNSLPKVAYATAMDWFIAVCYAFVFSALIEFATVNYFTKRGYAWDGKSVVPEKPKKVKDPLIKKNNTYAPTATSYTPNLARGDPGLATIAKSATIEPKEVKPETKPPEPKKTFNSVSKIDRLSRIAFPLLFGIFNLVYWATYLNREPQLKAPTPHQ
T2 sequence (P18507 whole entry): T1 sequence (P18507 whole entry)
T2 sequence (P28472 whole entry): T1 sequence (P28472 whole entry)
As to the kind of experiment: Displacement of [3H]-Ro 15-1788 from Homo sapiens (human) recombinant GABAA alpha1beta3gamma2 receptor expressed in Ltk- cells after 1 hr by liquid scintillation counting. It counts as cell-based.

The target of test [4] is T3, GABA-A receptor; alpha-3/beta-3/gamma-2 (Homo sapiens, UniProt P18507+P28472+P34903).
T3 sequence (P18507 whole entry): T1 sequence (P18507 whole entry)
T3 sequence (P28472 whole entry): T1 sequence (P28472 whole entry)
T3 sequence (P34903 whole entry): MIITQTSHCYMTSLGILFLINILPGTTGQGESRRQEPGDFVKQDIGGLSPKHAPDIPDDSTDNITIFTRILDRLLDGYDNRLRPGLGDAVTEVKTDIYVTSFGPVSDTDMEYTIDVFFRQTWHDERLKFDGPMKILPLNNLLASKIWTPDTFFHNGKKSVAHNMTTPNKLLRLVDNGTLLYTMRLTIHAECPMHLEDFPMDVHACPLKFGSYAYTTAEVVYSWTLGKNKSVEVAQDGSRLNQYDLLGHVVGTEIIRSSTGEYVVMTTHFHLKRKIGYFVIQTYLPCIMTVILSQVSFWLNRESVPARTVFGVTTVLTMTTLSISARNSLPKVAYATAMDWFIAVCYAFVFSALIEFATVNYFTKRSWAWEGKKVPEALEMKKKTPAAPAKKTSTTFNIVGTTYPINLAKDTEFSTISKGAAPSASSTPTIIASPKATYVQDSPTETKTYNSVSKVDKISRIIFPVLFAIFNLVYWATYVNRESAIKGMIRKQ
Description: Displacement of [3H]-Ro 15-1788 from Homo sapiens (human) recombinant GABAA alpha3beta3gamma2 receptor expressed in Ltk- cells after 1 hr by liquid scintillation counting. It counts as cell-based.

The target in test [5] is GABA-A receptor; alpha-6/beta-3/gamma-2 (Homo sapiens, UniProt P18507+P28472+Q16445). Description: Displacement of [3H]-Ro 15-4513 from Homo sapiens (human) recombinant GABAA alpha6beta3gamma2 receptor expressed in Ltk- cells after 1 hr by liquid scintillation counting. It counts as cell-based.
Sequence of GABA-A receptor; alpha-6/beta-3/gamma-2 (Q16445 whole entry, one chain of several): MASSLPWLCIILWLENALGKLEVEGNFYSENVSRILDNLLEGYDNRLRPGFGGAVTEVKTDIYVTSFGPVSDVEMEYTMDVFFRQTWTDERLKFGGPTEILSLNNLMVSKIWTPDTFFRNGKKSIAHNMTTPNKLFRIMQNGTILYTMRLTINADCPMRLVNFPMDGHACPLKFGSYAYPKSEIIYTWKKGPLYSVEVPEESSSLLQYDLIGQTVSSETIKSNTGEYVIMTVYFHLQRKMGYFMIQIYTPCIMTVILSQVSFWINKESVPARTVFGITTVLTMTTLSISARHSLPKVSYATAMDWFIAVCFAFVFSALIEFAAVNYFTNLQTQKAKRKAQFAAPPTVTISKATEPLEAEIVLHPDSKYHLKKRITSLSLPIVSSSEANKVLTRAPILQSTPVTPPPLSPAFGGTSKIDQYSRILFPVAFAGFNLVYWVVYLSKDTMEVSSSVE
Test [6] concerns the target T4, GABA-A receptor; alpha-5/beta-3/gamma-2 (Homo sapiens, UniProt P18507+P28472+P31644).
T4 sequence (P18507 whole entry): T1 sequence (P18507 whole entry)
T4 sequence (P28472 whole entry): T1 sequence (P28472 whole entry)
T4 sequence (P31644 whole entry): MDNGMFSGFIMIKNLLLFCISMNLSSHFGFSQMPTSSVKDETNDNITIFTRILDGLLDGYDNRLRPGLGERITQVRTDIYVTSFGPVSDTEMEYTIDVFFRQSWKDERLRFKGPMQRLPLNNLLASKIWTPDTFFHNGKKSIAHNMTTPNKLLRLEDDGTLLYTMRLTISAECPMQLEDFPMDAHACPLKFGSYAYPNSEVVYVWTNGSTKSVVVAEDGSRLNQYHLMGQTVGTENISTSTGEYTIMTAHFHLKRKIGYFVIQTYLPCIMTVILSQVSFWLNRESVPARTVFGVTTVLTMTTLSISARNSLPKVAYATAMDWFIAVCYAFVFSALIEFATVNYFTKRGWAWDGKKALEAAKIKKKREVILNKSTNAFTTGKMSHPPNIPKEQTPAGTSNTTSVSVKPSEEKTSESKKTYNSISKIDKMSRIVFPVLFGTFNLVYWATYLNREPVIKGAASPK
Description: Displacement of [3H]-Ro 15-1788 from Homo sapiens (human) recombinant GABAA alpha5beta3gamma2 receptor expressed in Ltk- cells after 1 hr by liquid scintillation counting. In kind it is cell-based.

Sequence of GABA A receptor alpha-4/beta-3/gamma-2 (P48169 whole entry, one chain of several): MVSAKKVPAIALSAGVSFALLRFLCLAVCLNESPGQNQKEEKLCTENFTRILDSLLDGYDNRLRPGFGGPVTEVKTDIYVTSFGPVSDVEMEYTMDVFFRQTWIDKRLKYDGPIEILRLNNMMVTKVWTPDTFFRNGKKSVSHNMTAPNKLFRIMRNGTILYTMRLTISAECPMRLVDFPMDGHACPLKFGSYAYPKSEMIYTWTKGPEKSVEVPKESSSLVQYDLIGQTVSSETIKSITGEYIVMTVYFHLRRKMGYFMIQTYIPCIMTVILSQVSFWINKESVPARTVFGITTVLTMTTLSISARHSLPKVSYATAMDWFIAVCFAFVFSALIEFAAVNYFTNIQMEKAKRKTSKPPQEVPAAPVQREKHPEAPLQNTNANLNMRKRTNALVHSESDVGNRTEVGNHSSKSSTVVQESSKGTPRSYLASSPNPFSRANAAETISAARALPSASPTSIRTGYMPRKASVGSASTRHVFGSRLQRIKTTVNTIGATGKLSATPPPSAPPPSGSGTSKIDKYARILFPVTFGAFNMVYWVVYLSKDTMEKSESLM

As usually defined, the Ki is a measure of affinity in units of concentration, obtained from inhibition or displacement. Regarding `CC(C)(C)OC(=O)c1ncn2c1[C@@H]1CCCN1C(=O)c1cc(Br)ccc1-2`, the Ki in test [1] was 29 nM; in test [2], 123 nM; in test [3] it was 150 nM; in test [4] it was 49 nM; in test [5], 72 nM; in test [6] it was 4 nM. Also, the Ratio Ki in the test listed under Homo sapiens amounted to 37.5.
